Where “and” joins values, the source holds several entries; their conditions need not be identical. Equal entries are not always repeated.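 Each compound was tested at five concentrations against cells in 96-well plates for 48 hours. GI50 marks 50% less growth.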 Calls of active or inactive are those of the source. Cut-off read from the data, not from the text of the source: active = GI50 up to about 1.1 µM and inactive = higher.
Assays:
Assay in all cases: NCI tumour cell line growth inhibition, 48 h
[1] = system: MOLT-4
[2] = system: RPMI-8226
[3] = system: OVCAR-4
[4] = system: NCI-H23
[5] = system: KM12
[6] = system: UO-31
[7] = system: CAKI-1
[8] = system: HCT-15
[9] = system: HOP-92
[10] = system: OVCAR-3
[11] = system: A498
[12] = system: CCRF-CEM
[13] = system: HCC 2998
[14] = system: ACHN
[15] = system: LOX IMVI
[16] = system: 786-0
[17] = system: UACC-257
[18] = system: DU-145
[19] = system: MCF7

Measured: GI50

Oc1cc(O)c2c(-c3c(O)c(-c4ccc(O)c(O)c4)[o+]c4cc(O)cc(O)c34)c(O)c(-c3ccc(O)c(O)c3)[o+]c2c1
inactive: [1] 30.5 µM | [2] 63 µM | [3] 27.5 µM | [4] 40.3 µM | [5] 35.1 µM | [6] 40.4 µM | [7] 36.9 µM | [9] 36.7 µM | [10] 20.7 µM | [11] 38.5 µM | [12] > 10 µM | [13] 39.2 µM | [14] 21.7 µM | [15] 32.4 µM | [16] 35.5 µM | [17] > 100 µM
41.8 µM: [8]

CN=[S+]([O-])(c1ccccc1)c1ccccc1
> 100 µM: [8]
inactive: [1] > 100 µM | [2] > 100 µM | [3] > 100 µM | [4] > 100 µM | [5] > 100 µM | [6] > 100 µM | [7] > 100 µM | [9] > 100 µM | [10] > 100 µM | [11] > 100 µM | [12] > 100 µM | [13] > 100 µM | [14] > 100 µM | [15] > 100 µM | [16] > 100 µM | [17] > 100 µM

O=c1c2cc(I)ccc2nc(-c2cccs2)n1/N=C/c1ccccc1
inactive: [2] > 100 µM | [3] > 100 µM | [4] > 100 µM | [5] > 100 µM | [6] > 100 µM | [7] > 100 µM | [18] > 100 µM | [9] > 100 µM | [10] > 100 µM | [19] > 100 µM | [12] > 100 µM | [13] > 100 µM | [14] > 100 µM | [15] > 100 µM | [16] > 100 µM | [17] 79.1 µM
> 100 µM: [8]

NC(Cc1ccc(O)c(O)c1)P(=O)(O)O (stereo not given)
inactive: [1] > 100 µM | [2] 92.7 µM | [3] > 100 µM | [4] > 100 µM | [5] > 100 µM | [6] > 100 µM | [7] > 100 µM | [18] > 100 µM | [9] > 100 µM | [10] > 100 µM | [19] > 10 µM | [11] > 100 µM | [12] 21.6 µM | [13] > 100 µM | [14] > 100 µM | [16] > 100 µM | [17] > 100 µM
> 100 µM: [8]

O=C(N/N=C1\C(=O)N(c2nccs2)C(=O)C(=O)C1c1nc2ccccc2s1)c1ccccc1O (stereo not given)
41.8 µM: [8]
inactive: [2] 61.4 µM | [3] 39.8 µM | [4] 29.5 µM | [5] 54.5 µM | [6] 8.22 µM | [7] > 100 µM | [9] > 100 µM | [10] 35.9 µM | [11] 65.3 µM | [12] 39.5 µM | [13] 15 µM | [14] 28.6 µM | [15] 44.3 µM | [16] > 100 µM | [17] 35.7 µM

NC(=S)N/N=C(\CCC(=O)Nc1ccccc1[N+](=O)[O-])CC(=O)c1ccco1
inactive: [1] > 100 µM | [2] > 100 µM | [3] > 100 µM | [4] > 100 µM | [5] > 100 µM | [6] > 100 µM | [7] > 100 µM | [9] > 100 µM | [10] > 100 µM | [11] 49.3 µM | [12] > 100 µM | [13] > 100 µM | [14] > 100 µM | [15] > 100 µM | [16] > 100 µM | [17] > 100 µM
> 100 µM: [8]

O=C(CC(=O)C1=CNc2ccccc2S1)C(=O)Nc1ccc(Cl)cc1
inactive: [1] > 50 µM | [2] > 50 µM | [3] > 50 µM | [4] > 50 µM | [5] > 50 µM | [6] > 50 µM | [7] > 50 µM | [9] > 50 µM | [10] > 50 µM | [11] > 50 µM | [12] > 50 µM | [13] > 50 µM | [14] > 50 µM | [15] > 50 µM | [16] > 50 µM | [17] > 50 µM
> 50 µM: [8]

N#C/C(=C\c1ccc(O)cc1)C(N)=O
inactive: [1] > 100 µM | [2] > 100 µM | [3] > 100 µM | [4] > 100 µM | [5] > 100 µM and > 74.6 µM | [6] 61.5 µM and 91.6 µM | [7] > 100 µM | [9] > 100 µM | [10] > 100 µM | [19] > 100 µM | [11] > 95.7 µM and 57.3 µM | [12] > 100 µM | [13] > 100 µM | [14] > 100 µM | [15] > 100 µM | [16] > 100 µM | [17] > 100 µM
> 100 µM: [8]

NC1=NC2=c3ccccc3=C(c3cnccn3)C2(c2cnccn2)c2ccccc21 (stereo not given)
> 100 µM: [8]
inactive: [1] 33.6 µM | [2] 58.7 µM | [3] 42.4 µM | [4] 91.4 µM | [5] 81.8 µM | [6] 44.4 µM | [7] 42.8 µM | [9] 37.9 µM | [10] 13.8 µM | [11] 18.2 µM | [12] 89.7 µM | [13] > 100 µM | [14] 64.4 µM | [15] 64.4 µM | [16] > 100 µM | [17] 37.1 µM

CN/N=C(/Cc1occc(=O)c1O)C(=O)Nc1ccccc1C
inactive: [1] > 100 µM | [2] > 100 µM | [3] > 100 µM | [4] > 100 µM | [5] > 100 µM | [6] > 100 µM | [7] > 100 µM | [9] 20.4 µM | [10] > 100 µM | [11] > 100 µM | [12] > 100 µM | [13] > 100 µM | [14] > 100 µM | [15] > 100 µM | [16] > 100 µM | [17] > 100 µM
> 100 µM: [8]

Cc1ccc(/N=N/c2c(C)nn(-c3ccccc3)c2C)c(Br)c1
36 µM: [8]
inactive: [1] 64 µM | [2] 36 µM | [3] > 100 µM | [4] > 100 µM | [5] 95.5 µM | [7] > 100 µM | [9] > 100 µM | [10] > 100 µM | [11] > 100 µM | [12] 27 µM | [13] > 100 µM | [14] > 100 µM | [15] 53 µM | [16] > 100 µM | [17] 89.7 µM

CC(C)(/C=N\O)NO
inactive: [1] > 10 µM | [2] > 10 µM | [3] > 10 µM | [4] > 10 µM | [5] > 10 µM | [6] > 10 µM | [7] > 10 µM | [18] > 10 µM | [9] > 10 µM | [10] > 10 µM | [19] > 10 µM | [12] > 10 µM | [13] > 10 µM | [14] > 10 µM | [15] > 10 µM | [16] > 10 µM | [17] > 10 µM
> 10 µM: [8]
